Results from ChEMBL document CHEMBL4831514, “Novel betulin dicarboxylic acid ester derivatives as potent antiviral agents: Design, synthesis, biological evaluation, structure-activity relationship and in-silico study” (Eur J Med Chem, 2021).

Key:
[1] = (§1) Selectivity index, ratio of CC50 for cytotoxicity against dog MDCK cells to EC50 for antiviral activity against Influenza A virus H1N1 (A/PR/8/34) infected in MDCK cells assessed as reduction in virus titer treated 1 hr post viral infection followed by replacement with fresh medium with compounds and measured after 72 hrs by MTT assay; format: toxicity, cell-based; settings: read-out: Selectivity Index
[2] = tested on: Influenza A virus; experiment: Antiviral activity against Influenza A virus H1N1 (A/PR/8/34) infected in MDCK cells assessed as reduction in virus titer treated 1 hr post viral infection followed by replacement with fresh medium with compounds and measured after 72 hrs by MTT assay; format: functional, organism-based; settings: H1N1 A/PR/8/34, MDCK
[3] = tested on: Influenza A virus; experiment: as §1, with “Potency” for “Selectivity”, “oseltamivir EC50” for “CC50 for cytotoxicity against dog MDCK cells”, “to test compound” for “to”; format: functional

Row | SMILES | selectivity ratio at 72 h [1] | EC50 [2] [µM] | Ratio EC50 [3]
1 | C#CC1(NC(=O)/C(C)=C/C(=O)OC[C@]23CC[C@@H](C(=C)C)[C@@H]2[C@H]2CC[C@@H]4[C@@]5(C)CC[C@H](O)C(C)(C)[C@@H]5CC[C@@]4(C)[C@]2(C)CC3)CCCCC1 | 2 | 27.2 | 3
2 | C=C(C)[C@@H]1CC[C@]2(COC(=O)CSCC(=O)O)CC[C@]3(C)[C@H](CC[C@@H]4[C@@]5(C)CC[C@H](O)C(C)(C)[C@@H]5CC[C@]43C)[C@@H]12 | 2 | 21.1 | 3
3 | CCOC(=O)C1=C[C@@H](OC(CC)CC)[C@H](NC(C)=O)[C@@H](N)C1 [OSELTAMIVIR] | 98.2 | 80.1 | 
